# Where two headings read alike, the source gives them in different places.
# Legend:
# Rhinovirus = experiment: Activity against other respiratory viruses: Rhinovirus; assay type: cell-based, human rhinovirus; conditions: Enterovirus
# [1] = system: H1N1 A/PR/8/34 (PR8) virus; experiment: microbe, parasite or virus in culture; assay type: cell-based, influenza A virus; conditions: for EC50: Influenza A virus, MDCK, 24 h; for PR8 Yield: no zanamivir (Control)
# [2] = Toxicity / cell viability by MTT in uninfected MDCK cells; assay type: cell-based, canine; conditions: dog, uninfected MDCK cells; uninfected cells
# Experimental: (§1) Cell culture, treatment and transfection-Madin-Darby canine kidney (MDCK) cells, and human A549 alveolar type II-like epithelial, Jurkat Tlymphoblastoid and U397 monocytic leukemia cells were grown at 37° C. in a 5% CO2 atmosphere in RPMI 1640 (Invitrogen), supplemented with 10% fetal calf serum (FCS), 2 mM glutamine and antibiotics. Test compounds were added immediately after 1-hour adsorption period, and kept in the culture medium for the entire time of the experiment, unless differently specified. […] Cell viability was determined by the 3-(4,5-dimethylthiazol-2-yl)-2,5-diphenyltetrazolium bromide (MTT) to MTT formazan conversion assay (Sigma-Aldrich) as described previously. Microscopical examination of mock-infected or virus-infected cells was performed using a Leica DM-IL microscope and images were captured on a Leica DC 300 camera using Leica Image-Manager500 software.
# MDCK cells = experiment: as above; assay type: cell-based, canine; conditions: MDCK cells, MTT
# Experimental: as §1
# [3] = system: Respiratory syncytial virus; experiment: Activity against other respiratory viruses: Respiratory syncytial virus; assay type: cell-based; conditions: human respiratory syncytial virus
# Parainfluenza = experiment: Activity against other respiratory viruses: Parainfluenza; assay type: cell-based
# [4] = Double-blind placebo controlled trials in influenza-like illness; assay type: in vivo, human
# Experimental: Evaluation of the effect of twice daily nitazoxanide for 5 days on the duration of symptoms in pediatric patients and adults with influenza-like illnesses was conducted. Two double-blind placebo controlled trials were conducted. Children 12 months-11 years of age were given NTZ suspension (n=100, 50 per group) and Patients ≥12 years of age were given NTZ 500 mg tablets (n=86, 43 per group). Single center trials were conducted. Studies were based on TAMIFLU® trials. The trials followed specific Inclusion/exclusion criteria. Inclusion required children age 1-11 years of patients ≥12 years of age with a fever >100° F. with ≥1 respiratory symptom (including cough, nasal discharge, sneezing, sore throat, etc.) and/or with ≥1 constitutional symptom (myalgia, malaise, fatigue, headache, chills/sweat, etc.). Major exclusions included symptom duration ≥72 hours, pregnancy or breastfeeding, concurrent antibiotics/antiviral medication, or a history of asthma or other pulmonary disease.
# Patients were randomized to receive NTZ or placebo b.i.d. for 5 days. Nasopharyngeal swab collected at baseline for rapid direct immunofluorescence assay (SimulFluor respiratory Screen) for 7 viruses (RSV, Influenza A & B, Parainfluenza 1-3, and Adenovirus). Symptoms recorded in a daily diary by the patient (or parent) with each symptom graded on a scale of 0 to 3: absent, mild, moderate, severe. Tissue was stored in a ziplock plastic bag and collected daily by study personnel for weighing. A follow up physical examination was conducted on day 7. The primary endpoint was the time from baseline to each symptom returning to absent or mild (<2). Secondary endpoints include antibiotic use, day 7 respiratory symptoms, daily tissue/mucus weight.
# Coronavirus = experiment: Activity against other respiratory viruses: Coronavirus; assay type: cell-based
# H1N1 A/PR/8/34 (PR8) = experiment: microbe, parasite or virus in culture; assay type: cell-based, influenza A virus
# influenza = experiment: Clinical trials, treatment of influenza; assay type: in vivo, human; conditions: orally 300 mg or 600 mg twice daily for 5 days
# Experimental: Low dose administration of thiazolides such as NTZ to treat virus infection. NTZ can be administered orally at a dose of 300 mg or 600 mg twice daily for 5 days as a treatment of influenza. […] Preferably, the dosage of nitazoxanide is 300 mg twice daily for 5 days, which is less than the dosage of NTZ needed to treat intestinal infections, thereby enabling a reduction of side effects associated with higher dosages. Thiazolides can also be administered as a modified release bi-layer tablet. As such, thiazolides can be administered in 100 mg, 200 mg, 300 mg, 400 mg, 500 mg or 600 mg doses twice daily for 5 days to treat virus infection.
# A/WSN/33 (WSN) = experiment: microbe, parasite or virus in culture; assay type: cell-based; conditions: Influenza A virus, MDCK, 24 h, read-out: EC50, inhibition of virus replication
# [5] = system: H5N9 low-pathogenicity avian strain A/Ck/It/9097/97 (A/Ck); experiment: microbe, parasite or virus in culture; assay type: cell-based; conditions: Influenza A virus, H5N9, MDCK, 24 h, read-out: EC50, inhibition of virus replication
# [6] = Cytotoxicity (CC50) in the other respiratory virus assays
# [7] = system: H1N1 A/PR/8/34 (PR8) virus; experiment: microbe, parasite or virus in culture; assay type: cell-based, influenza A virus; conditions: Influenza A virus, MDCK, 24 h
# [8] = system: viral hemagglutinin (HA0); assay type: cell-based, influenza A virus; conditions: WSN in A549 cells, A/Ck and PR8 in MDCK cells
# Adenovirus = experiment: Activity against other respiratory viruses: Adenovirus; assay type: cell-based; conditions: unidentified adenovirus
structure (smiles),measurement,setting,value
"CC(=O)Oc1ccccc1C(=O)Nc1ncc([N+](=O)[O-])s1 [Compound 1, nitazoxanide]",EC50,Rhinovirus,> 10 µg/mL
same,EC50,[1]; read-out: EC50 of NTZ in the experiments with zanamivir,0.66 µg/mL
same,EC50,[1]; read-out: EC50 of NTZ in the experiments with zanamivir (molar equivalent),~2.2 µM
same,PR8 Yield,[1]; Nitazoxanide 0.1 μg/ml,48 HAU/ml
same,PR8 Yield,[1]; Nitazoxanide 1 μg/ml,16 HAU/ml
same,CC50,[2],> 50 µg/mL
same,Toxicity LD50 (MTT),MDCK cells,>50 µg/mL
same,EC50,[3],0.5 µg/mL
same,EC50,Parainfluenza,0.5 µg/mL
same,"respiratory symptoms, Day 7 Physical Exam","[4]; influenza-like illness, FIG. 13",reduces respiratory symptoms
same,resolution of symptoms associated with influenza-like illness,"[4]; subjects not positive for Adenovirus, RSV, Influenza A, Parainfluenza 1, FIG. 12",can resolve symptoms
same,treatment of patients with influenza like illness,"[4]; twice daily for 5 days vs placebo, patients mostly negative for Adenovirus, RSV, Influenza A, Parainfluenza 1",has the ability to treat patients
same,EC50,Coronavirus,1 µg/mL
same,EC50,"H1N1 A/PR/8/34 (PR8); Influenza A virus, MDCK, 24 h, read-out: EC50, inhibition of virus replication",1 µg/mL
same,EC50,"H1N1 A/PR/8/34 (PR8); Influenza A virus, MDCK, PR8 virus, separate studies, read-out: EC50 (molar equivalent)",3.3 µM
same,EC50,"H1N1 A/PR/8/34 (PR8); Influenza A virus, PR8, MDCK cells, read-out: Virus Yield EC50",1 µg/mL
same,EC90,"H1N1 A/PR/8/34 (PR8); Influenza A virus, PR8, MDCK cells, read-out: Virus Yield EC90",7 µg/mL
same,"antiviral activity against PR8, overall rating","H1N1 A/PR/8/34 (PR8); PR8 influenza A virus, Table 1",potent and selective
same,treatment of influenza in clinical trials,influenza,has the ability to treat influenza
same,EC50,A/WSN/33 (WSN),0.5 µg/mL
same,EC50,[5],1 µg/mL
same,CC50,[6],> 50 µg/mL
same,CC50,[6]; Adenovirus line of Table 3,>50 µg/mL
same,CC50,[6]; Coronavirus line of Table 3,>50 µg/mL
same,CC50,[6]; Respiratory syncytial virus line of Table 3,>50 µg/mL
same,CC50,[6]; Rhinovirus line of Table 3,>50 µg/mL
same,EC50,[7]; read-out: EC50 of NTZ in the experiments with oseltamivir,1 µg/mL
same,EC50,[7]; read-out: EC50 of NTZ in the experiments with oseltamivir (molar equivalent),3.3 µM
same,HA0 maturation in other host cells and strains,[8],caused similar alterations
same,EC50,Adenovirus,0.2 µg/mL

# Reference: patent US11850237B2, “Compounds and methods for treating influenza” (priority 2009, dated 2023)
